According to patent US11000542B2, “Treatment and prevention of the common cold using povidone-iodine” (FIREBRICK PHARMA LIMITED, priority 2014, dated 2021):

Legend:
[1] = tested on: colds due to picornaviruses; details: cited from earlier work
nasal cilia = details: Kramer et al (2002), cited from earlier work
adenovirus = details: Reimer et al (2002), Wutzler et al (2002); cited from earlier work
monocytes = details: Van den Broek et al (1982); cited from earlier work
[2] = typical; cited from earlier work
human rhinovirus (HRV) = details: cited from earlier work
human influenza virus = details: very low concentrations; Reimer et al (2002); cited from earlier work
[3] = tested on: herpes simplex virus (HSV); details: Wutzler et al (2002); cited from earlier work
granulocytes = details: Van den Broek et al (1982); cited from earlier work
common cold = details: throat gargle; cited from earlier work
[4] = Intranasal tolerability of aqueous PVP-I preparations (inventors' finding); format: in vivo, human; details: repeated, frequent use
Description: With respect to the intranasal tolerability of PVP-I, as distinct from ciliotoxicity, the present inventors have discovered that when the concentration of PVP-I in aqueous preparations is greater than 1.0%, the preparation may be irritating to the nasal mucosa in some individuals and not suitable for repeated, frequent and general use, as would be required in the effective treatment or prevention of the common cold. On this consideration, a preferred composition for nasal use is a concentration of PVP-I at or below 1.0%.

Cc1cc(CCCOc2c(C)cc(-c3noc(C(F)(F)F)n3)cc2C)on1 [pleconaril]
cytochrome P450 induction ([1]; FDA Advisory Committee review of 2002 NDA): a risk of cytochrome P450 induction | reduction in cold duration ([1]; Phase III data): one | Time to Alleviation of Illness (TAI), cold duration ([1]; phase three study, Hayden et al (2003)): 6.3 days

povidone-iodine [PVP-I]
PVP-I concentration toxic to the nasal cilia (ciliotoxic) (nasal cilia; Reimer et al (2002): complete loss of ciliary function): ≥ 2.5% | PVP-I concentration not ciliotoxic / suitable for use in the nose (nasal cilia; Reimer et al (2002)): ≤ 1.25% | exposure required for a 4 log reduction (microbicidal effect) (adenovirus): 5 minutes | PVP-I concentration substantially degrading monocytes (monocytes): above 0.1% | free iodine in PVP-I solutions [2]: less than 30 ppm | log reduction in HRV (human rhinovirus (HRV); 30 second exposure, Wutzler et al (2002)): 1.1 log | reduction in viable virus count (human rhinovirus (HRV); 30 seconds exposure, any concentration, Reimer et al (2002)): ~1 log | exposure required for a 4 log reduction (microbicidal effect) (human rhinovirus (HRV); in vitro, Reimer et al (2002), Wutzler et al (2002)): 30 minutes | microbicidal effect against HRV (human rhinovirus (HRV); maximum exposure period tested 10 minutes, Kawana et al (1997)): failed to produce a microbicidal effect against HRV | exposure for a 4 log10 reduction in viable virus count (human influenza virus): ≤ 30 second | exposure for a microbicidal effect (4 log reduction) [3]: 30 seconds | PVP-I concentration at which virtually all granulocytes destroyed (granulocytes): above 0.1% | PVP-I concentration significantly reducing the viability of granulocytes (granulocytes): above 0.05% | effect of gargling on cold symptoms and incidence (common cold): no significant effect on nasal cold symptoms or bronchial complications, and no benefit in terms of reducing the incidence of the common cold | PVP-I concentration in aqueous preparations that may be irritating to the nasal mucosa in some individuals [4]: greater than 1.0%
